Assay results from PMC7529893, “Structural basis for substrate recognition and chemical inhibition of oncogenic MAGE ubiquitin ligases” (Nature Communications, 2020).

The molecules below were run against T1, MAGE-A11:PCF11 interaction (GST-MAGE-A11 MHD and FAM-PCF11_4) (Homo sapiens, UniProt P43364) (assay: TR-FRET dose response test of compounds for disruption of MAGE-A11:PCF11 binding). Details: not given.
T1 construct: GST-MAGE-A11 MHD (human MAGE-A11 MHD amino acid 218-429); made in house; host or cells: E. coli BL21(DE3)
T1 sequence (P43364 218-429): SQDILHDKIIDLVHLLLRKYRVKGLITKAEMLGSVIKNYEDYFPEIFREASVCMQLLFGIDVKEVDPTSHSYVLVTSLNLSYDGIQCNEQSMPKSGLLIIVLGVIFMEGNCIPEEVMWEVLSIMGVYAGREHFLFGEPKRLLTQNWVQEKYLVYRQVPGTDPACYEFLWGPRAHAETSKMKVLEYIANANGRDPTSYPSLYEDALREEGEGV
Procedure: The TR-FRET assay buffer with a formula of 50 mM Tris pH 7.5, 20 mM MgCl2, 0.1 mg/ml BSA and 1 mM DTT was freshly prepared before each experiment. All TR-FRET assays were performed in black 384-well plates with 20 µl/well assay volume in the TR-FRET assay buffer at room temperature (~25 °C). All peptides or compounds were solubilized in DMSO. To test the competitive activity of peptides or compounds against the interaction between GST-MAGE-A11 MHD and FAM-PCF11_4 peptide, 10 µl/well peptide or compound at specified concentration was dispensed into a black 384-well low volume plate, followed by 5 µl/well FAM-PCF11_4 (800 nM), 5 µl/well Tb-anti-GST (20 nM), and GST-MAGE-A11 MHD (20 nM). The assay components in each well was then mixed by shaking the plate on an IKA MTS 2/4 digital microtiter plate shaker (IKA Works; Wilmington, NC, USA) for 1 min. The plate was further centrifuged in an Eppendorf 5810 centrifuge with an A-4-62 swing-bucket rotor (Eppendorf AG, Hamburg, Germany) at 201 g for 30 s. The plate was then incubated for 90 min with a lid to avoid light exposure to the assay components. After incubation, the fluorescent emission signals at 520 nm and 490 nm channels of individual wells were measured with a PHERAstar FS plate reader (BMG Labtech; Durham, NC, USA) by using a 340 nm excitation filter, 100 µs delay time, and 200 µs integration time. The TR-FRET fluorescence emission ratio (TR-FRET signal) for each well was presented as 10,000 × 520 nm/490 nm, which was used directly for curve fitting, or further converted to %Inhibition based on the respective positive and negative controls. The graphic software GraphPad Prism 4.81 (GraphPad Software; La Jolla, CA, USA) was used to generate curves and derive IC50 values of tested peptides or compounds, if applicable.
TR-FRET screen for identifying MAGE-A11 small molecule inhibitors was performed as follows. The primary one-concentration screening and subsequent 10 or 20-concentration dose-response tests were accomplished with an automated High Throughput Screening system (HighRes Biosolutions, Beverly, MA)[30]. In the primary screening, 15 µl/well FAM-PCF11_4 (267 nM) was first dispensed with a Multidrop Combi Reagent Dispenser (Thermo Fisher Scientific, Waltham, MA) to black 384-well low-volume assay plates. The plates were spun down with a Velocity11 VSpin microplate centrifuge (Agilent Technologies, Santa Clara, CA). In total, 30 nl/well of 10 mM compound/DMSO solutions, or DMSO alone, were transferred from compound plates (the St. Jude FDA drug and bioactive library, Drug-like library and Lead-like library) or a control plate to the assay plates with a Pin Tool (V&P Scientific, San Diego, CA). The compounds were arrayed in columns 3–12 and columns 15–24 of compound plates. The controls were arrayed in columns 1, 2, 13, and 14 of a compound plate. In all, 5 µl/well Tb-anti-GST (20 nM) and GST-MAGE-A11 (20 nM) or 5 µl/well Tb-anti-GST (20 nM) alone was then dispensed to selected wells with a Multidrop Combi Reagent Dispenser. The final assay volume was 20 µl/well. The final DMSO concentration was 0.25% (v/v) (0.1% (v/v) from the FAM-PCF11_4 DMSO stock solution and 0.15% (v/v) from the compound-DMSO solution or the DMSO for the control wells). The final tested compound concentration was 15 µM. The final FAM-PCF11_4 concentration was 200 nM and the final Tb-anti-GST concentration was 5 nM. The final GST-MAGE-A11 concentration was 5 nM except for those selected positive control wells in which GST-MAGE-A11 was not presented. The plates were then shaken with a big bear shaker (Big Bear Automation, Santa Clara, California) and spun down with the Velocity11 VSpin microplate centrifuge for 20 s. The plates were then incubated at room temperature in a Liconic incubator (Liconic US, Woburn, MA) for 90 min. The TR-FRET signals for individual wells were measured with a PHERAstar FS plate reader. The %Inhibition of each tested inhibitor was calculated by using Eq. 1.

SMILES | IC50 [µM]
COP(=O)(OC)c1nc(-c2ccc(Cl)cc2)oc1N1CCOCC1 [SJ000090185-1] | 17.4

Same assay, conditions: Dose response TR-FRET screening of nine scaffold groups against MAGE-A11:PCF11; read-out: consensus IC50

IC50 [µM] | SMILES
9.87 | O=C1C(Cl)=C(NC(=O)C(F)(F)F)C(=O)c2ccccc21 [SJ000024928-1]
11.2 | Cc1ccc(S(=O)(=O)c2nc(-c3cccc(C)c3)oc2N2CCOCC2)cc1 [SJ000027480-1]
9.2 | O=S(=O)(c1ccc(Cl)cc1)c1nc(-c2cccc(Br)c2)oc1N1CCOCC1 [SJ000027481-1]
9.54 | Cc1ccc(S(=O)(=O)c2nc(-c3cccc([N+](=O)[O-])c3)oc2N2CCOCC2)cc1 [SJ000027482-1]
8.71 | CCCCOc1ccc(N(C(C)=O)C2=C(Cl)C(=O)c3ccccc3C2=O)cc1 [SJ000032717-1]
17.4 | COc1cccc(-c2nc(S(=O)(=O)c3ccc(C)cc3)c(N3CCOCC3)o2)c1 [SJ000038123-1]
7.43 | COc1cccc(-c2nc(S(=O)(=O)c3ccc(Cl)cc3)c(N3CCOCC3)o2)c1 [SJ000038124-1]
3.3 | CN(C)c1ccc(NC2=C(Cl)C(=O)c3ccccc3C2=O)cc1 [SJ000109503-1]
57.1 | COc1cc2nc(N3CCN(C(=O)C4COc5ccccc5O4)CC3)nc(N)c2cc1OC (stereo not drawn) [SJ000113084-10]
29.5 | CCOC(=O)N1CCN(Cc2ccc3c(c2)c2ccccc2n3CC)CC1 [SJ000147352-1]
19.2 | CCCS(=O)(=O)N1CCN(Cc2ccc3c(c2)c2ccccc2n3CC)CC1 [SJ000167951-1]
11.7 | Cc1ccc(S(=O)(=O)c2nc(-c3ccc(F)cc3)oc2N2CCOCC2)cc1 [SJ000230854-1]
8.63 | O=S(=O)(c1ccccc1)c1nc(-c2ccc(Br)cc2)oc1N1CCOCC1 [SJ000244320-1]
21.8 | Cn1c(=O)c2[nH]c(-c3ccc(S(=O)(=O)O)cc3)nc2n(C)c1=O [SJ000287642-4]
30.1 | c1ccc(Oc2ccc3c(NCCCNCc4cccc5c4OCO5)ccnc3c2)cc1 [SJ000311208-1]
36.8 | COc1cccc(Oc2ccc3c(NCCCNCc4cc(F)ccc4OC)ccnc3c2)c1 [SJ000311217-1]
61.9 | COc1cccc(CNCCCNc2ccnc3cc(Oc4ccc(F)cc4)ccc23)c1O [SJ000311223-1]
20.7 | COc1cccc(CNCCCNc2ccnc3cc(Oc4ccc(Cl)cc4)ccc23)c1O [SJ000311227-1]
17.7 | Clc1ccc(Oc2ccc3c(NCCCNCc4cccc5c4OCO5)ccnc3c2)cc1 [SJ000311228-1]
19.7 | COc1ccc(F)cc1CNCCCNc1ccnc2cc(Oc3ccc(Cl)cc3)ccc12 [SJ000311229-1]
5.63 | COc1ccc(F)cc1CNCCCNc1ccnc2cc(Oc3cccc(N(C)C)c3)ccc12 [SJ000311233-1]
6.29 | COc1ccc(F)cc1CNCCCNc1ccnc2cc(Oc3ccc(C(C)(C)C)cc3)ccc12 [SJ000311237-1]
43.6 | COc1cccc(CNCCCNc2ccnc3cc(Cc4ccc(F)cc4)ccc23)c1O [SJ000311243-1]
27.7 | CC(C)CCc1ccc2c(NCCCNCc3cccc4c3OCO4)ccnc2c1 [SJ000311248-1]
16 | c1cc(CNCCCNc2ccnc3cc(CC4CCCCC4)ccc23)c2c(c1)OCO2 [SJ000311252-1]

The remaining lines, values behind:

SMILES | IC50 [µM]
Cc1ccc(S(=O)(=O)N2CCN(C3=C(Cl)C(=O)c4ccccc4C3=O)CC2)cc1 [SJ000021282-1] | 10.4
CCCCCOc1ccc(N(C(C)=O)C2=C(Cl)C(=O)c3ccccc3C2=O)cc1 [SJ000032724-1] | 28.3
CCC(COC(C)=O)NC1=C(Cl)C(=O)c2ccccc2C1=O (stereo not drawn) [SJ000149466-1] | 17.2
Cc1ccc(S(=O)(=O)c2nc(-c3ccccc3Cl)oc2N2CCOCC2)cc1 [SJ000230856-1] | 4.34
CS(=O)(=O)c1ccc(C2=C(c3ccccc3)C(=O)OC2)cc1 [SJ000285362-5] | 67.6
COc1cc2nc(N(C)CCCNC(=O)C3CCCO3)nc(N)c2cc1OC (stereo not drawn) [SJ000286094-9] | 36.2
C=CCn1c(=O)c2c(nc(-c3ccc(S(=O)(=O)O)cc3)n2C)n(C)c1=O [SJ000287614-4] | > 70
NC1=C(N2CCCCC2)C(=O)c2ccccc2C1=O [SJ000294373-2] | 20.1
CC(C)(C)c1ccc(O)c(CNCCCNc2ccnc3cc(Cl)ccc23)c1 [SJ000311193-1] | 30.4
COc1ccc(F)cc1CNCCCNc1ccnc2cc(Oc3ccccc3)ccc12 [SJ000311209-1] | 29
COc1cccc(Oc2ccc3c(NCCCNCc4cccc5c4OCO5)ccnc3c2)c1 [SJ000311216-1] | 36.9
COc1ccc(Oc2ccc3c(NCCCNCc4cccc(OC)c4O)ccnc3c2)cc1 [SJ000311219-1] | 29
COc1ccc(Oc2ccc3c(NCCCNCc4cccc5c4OCO5)ccnc3c2)cc1 [SJ000311220-1] | 43.7
COc1ccc(Oc2ccc3c(NCCCNCc4cc(F)ccc4OC)ccnc3c2)cc1 [SJ000311221-1] | 46.4
Fc1ccc(Oc2ccc3c(NCCCNCc4cccc5c4OCO5)ccnc3c2)cc1 [SJ000311224-1] | 59.6
COc1cccc(CNCCCNc2ccnc3cc(Oc4ccc(C(C)(C)C)cc4)ccc23)c1O [SJ000311235-1] | 7.65
CC(C)(C)c1ccc(Oc2ccc3c(NCCCNCc4cccc5c4OCO5)ccnc3c2)cc1 [SJ000311236-1] | 8.67
COc1cccc(CNCCCNc2ccnc3cc(-c4ccc(F)cc4)ccc23)c1O [SJ000311239-1] | 33.3
Fc1ccc(-c2ccc3c(NCCCNCc4cccc5c4OCO5)ccnc3c2)cc1 [SJ000311240-1] | 25
COc1ccc(F)cc1CNCCCNc1ccnc2cc(-c3ccc(F)cc3)ccc12 [SJ000311241-1] | 38.9
Fc1ccc(Cc2ccc3c(NCCCNCc4cccc5c4OCO5)ccnc3c2)cc1 [SJ000311244-1] | 42.3
COc1ccc(F)cc1CNCCCNc1ccnc2cc(Cc3ccc(F)cc3)ccc12 [SJ000311245-1] | 35.1
COc1cccc(CNCCCNc2ccnc3cc(CC4CCCCC4)ccc23)c1O [SJ000311251-1] | 29.2

Same assay, conditions: Supplementary Data 3, 59 quinoline compounds; read-out: TR-FRET IC50

SMILES | IC50 [µM]
COc1ccc(Oc2ccc3c(NCCCNCc4ccco4)ccnc3c2)cc1 [SJ000311218-1, COc1ccc(Oc2ccc3c(NCCCNCc4occc4)ccnc3c2)cc1] | > 70
Clc1ccc(Oc2ccc3c(NCCCNCc4ccco4)ccnc3c2)cc1 [SJ000311226-1, Clc1ccc(Oc2ccc3c(NCCCNCc4occc4)ccnc3c2)cc1] | > 70
CN(C)c1cccc(Oc2ccc3c(NCCCNCc4ccco4)ccnc3c2)c1 [SJ000311230-1, CN(C)c1cccc(Oc2ccc3c(NCCCNCc4occc4)ccnc3c2)c1] | > 70
CC(C)(C)c1ccc(Oc2ccc3c(NCCCNCc4ccco4)ccnc3c2)cc1 [SJ000311234-1, CC(C)(C)c1ccc(Oc2ccc3c(NCCCNCc4occc4)ccnc3c2)cc1] | 32.1
c1coc(CNCCCNc2ccnc3cc(CC4CCCCC4)ccc23)c1 [SJ000311250-1, C(CNCc1occc1)CNc2ccnc3cc(CC4CCCCC4)ccc23] | 54.9
